Blood glucose levels data for eight molecules are collected here from patent publication US8883963B2 (Cadila Healthcare Limited, priority 2007, dated 2014).

For experiment [1], the system named is C57BL/6J mice (mild hyperglycemic). The experiment can be described thus: In vivo glucose reduction, acute single dose 120-min time-course, i.p. route. Further details: species or system mouse; unit not given here. The note with it: male C57BL/6J mice. On the procedure: All the animal experiments were carried out according to the internationally valid guidelines following approval by the ‘Zydus Research Center animal ethical committee’.
Two days prior to the study, the animals were randomised and divided into 5 groups (n=6), based upon their fed glucose levels. On the day of experiment, food was withdrawn from all the cages, water was given ad-libitum and were kept for overnight fasting. Vehicle (normal saline)/test/standard compounds were administered intraperitoneally (i.p.) or orally, on a body weight basis.
(§1) Blood samples were centrifuged and the separated serum was immediately subjected for the glucose estimation. Serum for insulin estimation was stored at −70° C. until used for the insulin estimation. The glucose estimation was carried out with DPEC-GOD/POD method (Ranbaxy Fine Chemicals Limited, Diagnostic division, India), using Spectramax-190, in 96-microwell plate reader (Molecular devices Corporation, Sunnyvale, Calif.). […] The AUC and BCAUC obtained from graphs were analyzed for one way ANOVA, followed by Dunnett's post test, using Graph Pad prism software. Furthermore, the insulin estimation was carried out using rat/mouse insulin ELISA kit (Linco research, Missouri USA).

Experiment [2] shares this test system. The experiment can be described thus: In vivo glucose reduction, acute single dose 120-min time-course, oral route. Further details: species or system mouse; unit not given here. The note with it: male C57BL/6J mice. On the procedure:
Acute single dose 120-min time-course experiments were carried out in male C57BL/6J or db/db mice, age 8-12 weeks, bred in-house. Animals were housed in groups of 6 animals per cage, for a week, in order to habituate them to vivarium conditions (25±4° C., 60-65% relative humidity, 12:12 h light:dark cycle, with lights on at 7.30 am). All the animal experiments were carried out according to the internationally valid guidelines following approval by the ‘Zydus Research Center animal ethical committee’.
Two days prior to the study, the animals were randomised and divided into 5 groups (n=6), based upon their fed glucose levels. On the day of experiment, food was withdrawn from all the cages, water was given ad-libitum and were kept for overnight fasting. Vehicle (normal saline)/test/standard compounds were administered intraperitoneally (i.p.) or orally, on a body weight basis. Soon after the 0 min. blood collection from each animal, the subsequent blood collections were done at 30, 60 and 120 or up to 240 min., via retro-orbital route, under light ether anesthesia (Chen, D., et al., Diabetes Obesity Metabolism, 2005, 7, 307. Kim, J. G. et al., Diabetes, 2003, 52, 751).
as §1, with “USA). Changes in the blood glucose levels, at 0, 30, 60 and 120 min, with selected peptidomimetics are shown in Table 7 (via ip route of administration) and Table 8 (via oral route of administration) respectively.” for “USA).”

On to `CCc1cc(OC)ccc1-c1ccc(CC(NC(=O)[C@H](CC(=O)O)NC(=O)[C@H](CO)NC(=O)[C@@H](NC(=O)C(C)(Cc2ccccc2F)NC(=O)[C@@H](NC(=O)CNC(=O)C(CCC#N)NC(=O)C(C)(C)NC(=O)[C@@H](N)Cc2c[nH]cn2)[C@@H](C)O)[C@H](C)O)C(=O)NC(CCCc2ccccc2F)C(N)=O)cc1` (single isomer, unassigned) [Seq. ID. 120], for which the blood glucose levels came out at 182 ± 5.1 in experiment [1] (30 nM/kg i.p., 0 min); 118 ± 2.1 in experiment [1] (30 nM/kg i.p., 30 min); 116 ± 2.2 in experiment [1] (30 nM/kg i.p., 60 min); 118 ± 2.4 in experiment [1] (30 nM/kg i.p., 120 min); 184 ± 2.5 in experiment [2] (2 μM/kg oral, 0 min); 115 ± 1.6 in experiment [2] (2 μM/kg oral, 30 min). Besides, the blood glucose levels in experiment [2] (2 μM/kg oral, 60 min) worked out at 113 ± 3.2; in experiment [2] (2 μM/kg oral, 120 min), 110 ± 2.4.

On to `CCc1cc(OC)ccc1-c1ccc(CC(NC(=O)[C@H](CC(=O)O)NC(=O)[C@H](CO)NC(=O)[C@@H](NC(=O)C(C)(Cc2ccccc2F)NC(=O)[C@@H](NC(=O)CNC(=O)C(CCC#N)NC(=O)C(C)(C)NC(=O)[C@@H](N)Cc2c[nH]cn2)[C@H](C)O)[C@H](C)O)C(=O)N(C)C(CCCc2ccccc2)C(N)=O)cc1` (single isomer, unassigned) [Seq. ID. 130], for which the blood glucose levels in experiment [1] (30 nM/kg i.p., 0 min) is recorded as 181 ± 5.2; in experiment [1] (30 nM/kg i.p., 30 min), 119 ± 2.6; in experiment [1] (30 nM/kg i.p., 60 min), 117 ± 2.1; in experiment [1] (30 nM/kg i.p., 120 min) it was 119 ± 2.3; in experiment [2] (2 μM/kg oral, 0 min) it was 183 ± 2.4; in experiment [2] (2 μM/kg oral, 30 min), 116 ± 3.1. Moreover, the blood glucose levels amounted to 112 ± 4.8 in experiment [2] (2 μM/kg oral, 60 min) and 110 ± 2.5 in experiment [2] (2 μM/kg oral, 120 min).

For the molecule `CCc1cc(OC)ccc1-c1ccc(CC(C(=O)N(C)C(CCCc2ccccc2)C(N)=O)N(C)C(=O)[C@H](CC(=O)O)NC(=O)[C@H](CO)NC(=O)[C@@H](NC(=O)C(C)(Cc2ccccc2F)NC(=O)[C@@H](NC(=O)CNC(=O)C(CCC#N)NC(=O)C(C)(C)NC(=O)[C@@H](N)Cc2c[nH]cn2)[C@H](C)O)[C@H](C)O)cc1` (single isomer, unassigned) [Seq. ID. 142], the blood glucose levels came out at 183 ± 4.9 in experiment [1] (30 nM/kg i.p., 0 min); 117 ± 2.5 in experiment [1] (30 nM/kg i.p., 30 min); 116 ± 2.3 in experiment [1] (30 nM/kg i.p., 60 min); 119 ± 2.0 in experiment [1] (30 nM/kg i.p., 120 min); 185 ± 2.3 in experiment [2] (2 μM/kg oral, 0 min); 115 ± 3.8 in experiment [2] (2 μM/kg oral, 30 min). Further, the blood glucose levels in experiment [2] (2 μM/kg oral, 60 min) came out at 113 ± 4.9; in experiment [2] (2 μM/kg oral, 120 min), 109 ± 2.2.

On to `CCc1cc(OC)ccc1-c1ccc(CC(C(=O)N(C)C(CCCc2ccccc2)C(N)=O)N(C)C(=O)[C@H](CC(=O)O)N(C)C(=O)[C@H](CO)NC(=O)[C@@H](NC(=O)C(C)(Cc2ccccc2F)NC(=O)[C@@H](NC(=O)CNC(=O)C(CCC#N)NC(=O)C(C)(C)NC(=O)[C@@H](N)Cc2c[nH]cn2)[C@H](C)O)[C@H](C)O)cc1` (single isomer, unassigned) [Seq. ID. 154], for which the blood glucose levels was 181 ± 4.1 in experiment [1] (30 nM/kg i.p., 0 min); 117 ± 3.8 in experiment [1] (30 nM/kg i.p., 30 min); 117 ± 3.0 in experiment [1] (30 nM/kg i.p., 60 min); 117 ± 1.6 in experiment [1] (30 nM/kg i.p., 120 min); 181 ± 2.5 in experiment [2] (2 μM/kg oral, 0 min); 117 ± 3.3 in experiment [2] (2 μM/kg oral, 30 min). In addition, the blood glucose levels stood at 112 ± 4.0 in experiment [2] (2 μM/kg oral, 60 min) and 108 ± 2.9 in experiment [2] (2 μM/kg oral, 120 min).

Take `CCc1cc(OC)ccc1-c1ccc(CC(NC(=O)[C@H](CC(=O)O)NC(=O)[C@H](CO)NC(=O)[C@@H](NC(=O)C(C)(Cc2ccccc2F)NC(=O)[C@@H](NC(=O)CNC(=O)C(CCC#N)NC(=O)C(C)(C)NC(=O)[C@@H](N)Cc2c[nH]cn2)[C@H](C)O)[C@H](C)O)C(=S)NC(CCCc2ccccc2F)C(N)=O)cc1` (single isomer, unassigned) [Seq. ID. 168]: the blood glucose levels was found to be 182 ± 3.3 in experiment [1] (20 nM/kg i.p., 0 min); 120 ± 3.6 in experiment [1] (20 nM/kg i.p., 30 min); 127 ± 3.4 in experiment [1] (20 nM/kg i.p., 60 min); 145 ± 2.1 in experiment [1] (20 nM/kg i.p., 120 min); 183 ± 2.0 in experiment [2] (1.5 μM/kg oral, 0 min); 117 ± 1.1 in experiment [2] (1.5 μM/kg oral, 30 min). Further, the blood glucose levels in experiment [2] (1.5 μM/kg oral, 60 min) came out at 112 ± 1.1; in experiment [2] (1.5 μM/kg oral, 120 min) it was 110 ± 1.8.

Regarding `CCc1cc(OC)ccc1-c1ccc(CC(NC(=S)[C@H](CC(=O)O)NC(=O)[C@H](CO)NC(=O)[C@@H](NC(=O)C(C)(Cc2ccccc2F)NC(=O)[C@@H](NC(=O)CNC(=O)C(CCC#N)NC(=O)C(C)(C)NC(=O)[C@@H](N)Cc2c[nH]cn2)[C@H](C)O)[C@H](C)O)C(=S)NC(CCCc2ccccc2F)C(N)=O)cc1` (single isomer, unassigned) [Seq. ID. 180], the blood glucose levels in experiment [1] (20 nM/kg i.p., 0 min) was 180 ± 3.1; in experiment [1] (20 nM/kg i.p., 30 min), 122 ± 3.9; in experiment [1] (20 nM/kg i.p., 60 min) it was 129 ± 2.2; in experiment [1] (20 nM/kg i.p., 120 min), 140 ± 2.9; in experiment [2] (2 μM/kg oral, 0 min), 184 ± 2.2; in experiment [2] (2 μM/kg oral, 30 min) it was 118 ± 3.3. The blood glucose levels in experiment [2] (2 μM/kg oral, 60 min) came out at 112 ± 4.4; in experiment [2] (2 μM/kg oral, 120 min) it was 110 ± 2.9.

`CCc1cc(OC)ccc1-c1ccc(CC(CNC(CCCc2ccccc2)C(N)=O)NC(=O)[C@H](CC(=O)O)NC(=O)[C@H](CO)NC(=O)[C@@H](NC(=O)C(C)(Cc2ccccc2F)NC(=O)[C@@H](NC(=O)CNC(=O)C(CCC#N)NC(=O)C(C)(C)NC(=O)[C@@H](N)Cc2c[nH]cn2)[C@H](C)O)[C@H](C)O)cc1` (single isomer, unassigned) [Seq. ID. 190]: the blood glucose levels is recorded as 182 ± 2.1 in experiment [1] (10 nM/kg i.p., 0 min); 121 ± 2.9 in experiment [1] (10 nM/kg i.p., 30 min); 130 ± 3.1 in experiment [1] (10 nM/kg i.p., 60 min); 138 ± 2.4 in experiment [1] (10 nM/kg i.p., 120 min); 183 ± 2.1 in experiment [2] (2 μM/kg oral, 0 min); 118 ± 3.4 in experiment [2] (2 μM/kg oral, 30 min). Further, the blood glucose levels is recorded as 113 ± 4.6 in experiment [2] (2 μM/kg oral, 60 min) and 111 ± 2.8 in experiment [2] (2 μM/kg oral, 120 min).

As for `CCc1cc(OC)ccc1-c1ccc(CC(CNC(CCCc2ccccc2)C(N)=O)NC[C@H](CC(=O)O)NC(=O)[C@H](CO)NC(=O)[C@@H](NC(=O)C(C)(Cc2ccccc2F)NC(=O)[C@@H](NC(=O)CNC(=O)C(CCC#N)NC(=O)C(C)(C)NC(=O)[C@@H](N)Cc2c[nH]cn2)[C@H](C)O)[C@H](C)O)cc1` (single isomer, unassigned) [Seq. ID. 202], the blood glucose levels in experiment [1] (50 nM/kg i.p., 0 min) was 183 ± 5.1; in experiment [1] (50 nM/kg i.p., 30 min) it was 122 ± 3.1; in experiment [1] (50 nM/kg i.p., 60 min), 130 ± 2.3; in experiment [1] (50 nM/kg i.p., 120 min), 148 ± 2.2; in experiment [2] (2 μM/kg oral, 0 min) it was 184 ± 2.5; in experiment [2] (2 μM/kg oral, 30 min), 115 ± 3.6. The blood glucose levels in experiment [2] (2 μM/kg oral, 60 min) was found to be 113 ± 4.2; in experiment [2] (2 μM/kg oral, 120 min), 110 ± 2.4.
